Data reported in patent US9790169B2, “IDO inhibitors” (BRISTOL-MYERS SQUIBB COMPANY, priority 2015, dated 2017).

Target: human IDO1 (Homo sapiens, UniProt P14902)
Experiment: Assessment of human IDO-1 inhibitory activity in Hela cells (Interferon-gamma stimulated HeLa cells, Ehrlich reagent, absorbance 490 nm)
Format: cell-based
Parameters: endogenous in cells; host or cells: HeLa cells stimulated with interferon-gamma
Settings: Hela Human IDO-1 cellular assay
Outline: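 HeLa cells pre-incubated with compound 1 h at 37 °C, then stimulated with human IFN-γ (10 ng/ml final) or murine IFN-γ (5 ng/ml final) for 18 h. Kynurenine read with Ehrlich reagent at 490 nm after TCA (3%) and 50 °C treatment; IC50 normalized to unstimulated (100%) and IFN-γ-only (0%) wells.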

Sequence of human IDO1 (P14902 whole entry): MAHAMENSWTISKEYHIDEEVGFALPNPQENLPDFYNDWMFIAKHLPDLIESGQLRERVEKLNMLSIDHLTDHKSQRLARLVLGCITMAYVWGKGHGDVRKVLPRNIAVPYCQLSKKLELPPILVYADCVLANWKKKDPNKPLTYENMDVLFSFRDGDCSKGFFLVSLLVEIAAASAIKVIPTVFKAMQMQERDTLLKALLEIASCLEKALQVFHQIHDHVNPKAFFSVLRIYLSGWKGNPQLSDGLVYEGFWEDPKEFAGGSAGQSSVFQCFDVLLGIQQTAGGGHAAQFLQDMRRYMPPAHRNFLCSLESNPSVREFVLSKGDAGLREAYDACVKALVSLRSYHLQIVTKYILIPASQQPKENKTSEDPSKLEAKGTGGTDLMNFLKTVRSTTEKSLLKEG

Compound | IC50 [nM]
COCC(CC(=O)O)c1cc(F)c(N(CC(C)C)CC(C)C)c(Nc2ccc(Cl)cc2)c1 (single isomer, unassigned) [Example 920, 3-(3-((4-Chlorophenyl)amino)-4-(diisobutylamino)-5-fluorophenyl)-4-methoxybutanoic acid] | < 5
CCN(c1ccc([C@@H](COC)CC(=O)O)cc1Nc1ccc(C(N)=O)cc1)C1CCOCC1 (single isomer, unassigned) [Example 385] | > 50
CCNC(=O)NC[C@@H](CC)c1ccc(N(CC)C2CCOCC2)c(Nc2cnc(OCC)nc2)c1 [Example 1366, (S)-1-(2-(3-((2-Ethoxypyrimidin-5-yl)amino)-4-(ethyl(tetrahydro-2H-pyran-4-yl)amino)phenyl)butyl)-3-ethylurea] | > 50
CC[C@H](CC(=O)O)c1ccc(N(CC)C2CCOCC2)c(Nc2cnc(C)nc2)c1 (single isomer, unassigned) [Example 1363] | < 5
CCC(CC(=O)O)c1cc(F)c(N(CC)C2CCOCC2)c(Nc2cnc(OCC3CC3)nc2)c1 (single isomer, unassigned) [Example 141, 3-(3-((2-(cyclopropylmethoxy)pyrimidin-5-yl)amino)-4-(ethyl(tetrahydro-2H-pyran-4-yl)amino)-5-fluorophenyl)pentanoic acid] | < 5
(R)-3-(4-((1,1-dioxidotetrahydro-2H-thiopyran-4-yl)(ethyl)amino)- 3-((2-methoxypyrimidin-5- yl)amino)phenyl)-4- isopropoxybutanoic acid [Example 332] | > 50
CCOc1ccc(Nc2cc([C@@H](CC)CC(=O)O)ccc2N(CC)C2CCOCC2)cn1 (single isomer, unassigned) [Example 466] | < 5
CCN(c1ccc([C@@H](COC(C)C)CC(=O)O)cc1Nc1ccc(C#N)cc1)C1CCOCC1 (single isomer, unassigned) [Example 324] | < 50
COCC(CC(=O)O)c1ccc(N(CC(F)F)C2CCOCC2)c(Nc2ccc(C#N)cc2)c1 (single isomer, unassigned) [Example 322, 3-(3-((4-cyanophenyl)amino)-4-((2,2-difluoroethyl)(tetrahydro-2H-pyran-4-yl)amino)phenyl)-4-methoxybutanoic acid] | < 5
CCC(CC(=O)O)c1ccc(N(CC)C2CCN(Cc3ccccc3)CC2)c(Nc2ccc(C#N)cc2)c1 (single isomer, unassigned) [Example 940, 3-(4-((1-benzyl-piperidin-4-yl)(ethyl)amino)-3-((4-cyano-phenyl)amino)phenyl) pentanoic acid] | < 5
CCN(c1ccc(C(CC(=O)O)C2CC2)cc1Nc1cnc(OC)nc1)C1CCOCC1 (single isomer, unassigned) [Example 35, 3-cyclopropyl-3-(4-(ethyl(tetrahydro-2H-pyran-4-yl)amino)-3-((2-methoxypyrimidin-5-yl)amino)phenyl)propanoic acid] | < 50
CCN(c1ccc([C@@H](COC)CC(=O)O)cc1Nc1ccc(C#N)cc1C)C1CCOCC1 (single isomer, unassigned) [Example 367] | < 50
CCCN(c1ccc([C@@H](CC)CC(=O)O)cc1Nc1ccc(OC)nc1)C1CCOCC1 (single isomer, unassigned) [Example 542] | < 5
CCN(c1ccc([C@@H](COC)CC(=O)O)cc1Nc1ccc(C#N)c(C)c1)C1CCOCC1 (single isomer, unassigned) [Example 354] | < 50
CCCOc1ncc(Nc2cc(C(C)CC(=O)O)ccc2N(CC)C2CCOCC2)cn1 (single isomer, unassigned) [Example 621, 3-(4-(ethyl(tetrahydro-2H-pyran-4-yl)amino)-3-((2-propoxypyrimidin-5-yl)amino)phenyl)butanoic acid] | < 50
CCN(c1ccc([C@@H](COC)CC(=O)O)cc1Nc1cccc(C#N)c1)C1CCOCC1 (single isomer, unassigned) [Example 368] | < 50
CCOc1ncc(Nc2cc(C(COC)CC(=O)O)ccc2N2CCOC[C@H]2C(C)C)cn1 (single isomer, unassigned) [Example 914] | > 50
CCCN(c1ccc(C(COC)CC(=O)O)cc1Nc1ccc(F)cc1)C1CCS(=O)(=O)CC1 (single isomer, unassigned) [Example 184, 3-(4-((1,1-dioxidotetrahydro-2H-thiopyran-4-yl)(propyl)amino)-3-((4-fluorophenyl)amino)phenyl)-4-methoxybutanoic acid] | < 5
CCCN(c1ccc([C@H](COC)CC(=O)O)cc1Nc1cnc(OCC2CC2)nc1)C1CCOCC1 (single isomer, unassigned) [Example 573] | < 50
C[C@@H]1CN(c2ccc(C(CC(=O)O)C3CC3)cc2NC(=O)Nc2ccc(Cl)cc2F)C[C@H](C)O1 (single isomer, unassigned) [Example 252] | > 50
CCC(CC(=O)O)c1cnc(N(CC)C2CCOCC2)c(Nc2ccc(Cl)cc2)c1 (racemic) [Example 1380] | < 5
CCC(CC(=O)O)c1ccc(N(CC)C2CCOC2)c(NC(=O)Nc2ccc(Cl)cc2F)c1 (single isomer, unassigned) [Example 946 D1, 3-(3-(3-(4-Chloro-2-fluorophenyl)ureido)-4-(ethyl(tetrahydrofuran-3-yl)amino)phenyl)pentanoic acid] | < 50
COCC(CC(=O)O)c1ccc(N(C)C2CCOCC2)c(Nc2ccc(C#N)cn2)c1 (single isomer, unassigned) [Example 881, 3-(3-((5-cyanopyridin-2-yl)amino)-4-(methyl (tetrahydro-2H-pyran-4-yl)amino)phenyl)-4-methoxybutanoic acid] | > 50
CCC(CC(=O)O)c1ccc(N2C[C@@H]3C[C@H]2CN3CC(F)F)c(Nc2ccc(C#N)cc2)c1 (single isomer, unassigned) [Example 450] | > 50
CCN(c1ccc(C(COC)CC(=O)O)cc1Nc1ccc(Cl)cc1)C1CCS(=O)(=O)CC1 (single isomer, unassigned) [Example 170, 3-(3-((4-chlorophenyl)amino)-4-((1,1-dioxidotetrahydro-2H-thiopyran-4-yl)(ethyl)amino)phenyl)-4-methoxybutanoic acid] | < 5
CCOc1ccc(Nc2cc([C@H](CC)CC(=O)O)ccc2N(CC)C2CCOCC2)nn1 (single isomer, unassigned) [Example 510] | < 5
CCC1COCCN1c1ccc([C@H](COC)CC(=O)O)cc1Nc1ccc(Cl)cc1 (single isomer, unassigned) [Example 1292] | < 50
COc1ccc(Nc2cc(C(CC(=O)O)C3CC3)ccc2N2C[C@@H](C)O[C@@H](C)C2)cn1 (single isomer, unassigned) [Example 246] | > 50
CCOc1ncc(Nc2cc(C(CC)CC(=O)O)ccc2N2CCC(c3ccccc3)CC2)cn1 (single isomer, unassigned) [Example 47 Enantiomer 2, 3-(3-((2-Ethoxypyrimidin-5-yl)amino)-4-(4-phenylpiperidin-1-yl)phenyl)pentanoic acid] | < 50
CCCN(c1ccc([C@H](COC)CC(=O)O)cc1Nc1ccc2nc(C)sc2c1)C1CCOCC1 (single isomer, unassigned) [Example 570] | < 50
